For 26 compounds, IC50 results are on record in patent US9163021B2, “Pyrrolo[3,2-c]pyridine tropomyosin-related kinase inhibitors” (Pfizer Limited, priority 2012, dated 2015).

By IC50 is commonly meant the concentration that gives 50% inhibition. Lower therefore signals greater potency.

Chain of TRKA (P04629 441-796): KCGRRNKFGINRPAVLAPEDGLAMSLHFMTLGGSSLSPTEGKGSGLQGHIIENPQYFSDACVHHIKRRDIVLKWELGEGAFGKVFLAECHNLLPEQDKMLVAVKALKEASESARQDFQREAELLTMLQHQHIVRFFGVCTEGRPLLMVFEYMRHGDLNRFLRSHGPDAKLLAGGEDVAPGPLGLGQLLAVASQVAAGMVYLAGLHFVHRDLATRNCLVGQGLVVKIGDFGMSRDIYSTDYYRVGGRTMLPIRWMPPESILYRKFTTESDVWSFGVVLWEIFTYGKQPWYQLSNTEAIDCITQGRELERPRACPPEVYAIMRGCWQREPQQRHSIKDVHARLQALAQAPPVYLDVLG

The target of the experiment is TRKA (Homo sapiens (Human), UniProt P04629). Nature of the experiment: Isolated TRK enzyme assay (HTRF KinEASE-TK), PV3144 TrkA enzyme assay. Type of experiment: biochemical. The conditions noted are these: arithmetic mean where more than one reading. How it is done:
Isolated TRK Enzyme assays use the HTRF KinEASE-TK kit (Cisbio Cat#62TK0PEJ) with recombinant His-tagged cytoplasmic domains of each TRK receptor sourced from Invitrogen (see table below). This activity-assay measures the phosphorylation of tyrosine residues within a substrate from the HTRF kit which has been validated by Cisbio for a variety of tyrosine kinases including the TRK receptors.
0.5 mM stock solutions of test compounds are prepared and serially diluted in 100% DMSO. A standard curve using the compound of Example 135 disclosed in WO2005/116035 of 150 uM is also prepared on each test plate. High percentage effect (HPE) is defined by 150 uM (using the compound of Example 135 as disclosed in WO2005/116035) and 0% effect (ZPE) is defined by 100% DMSO. Greiner low volume black plates containing 0.2 ul of serially diluted compound, standard and HPE/ZPE are created using the Bravo nanoliter dispenser.
1× enzyme buffer is prepared from 5× Enzymatic Buffer from the Cisbio KinEASE TK kit using MilliQ water. The buffer is then supplemented with 10 mM MgCI and 2 mM DTT (both from Sigma). In the case of TRKB, the buffer is also supplemented with 125 nM Supplement Enzymatic Buffer (SEB) from the Cisbio kit.
2× FAC of enzyme and 2× FAC ATP diluted in 1× complete enzyme buffer is incubated at room temperature for 20 minutes to preactivate the enzyme. Following this preactivation step, 5 ul/well of enzyme+ATP mix is added using a Multidrop Micro to the assay plate, spotted with 0.2 ul 100% DMSO compound. This is left for 20 mins at room temperature before adding 5 ul of 2 uM TK-substrate-Biotin (from the Cisbio kit) diluted in 1× enzyme buffer (1 uM FAC) using the Multidrop Micro. The reaction is incubated at room temperature for the optimized assay reaction time (see table). The reaction is stopped by adding 10 ul/well HTRF Detection Buffer containing 0.25 uM Streptavidin-XL665 (0.125 uM FAC) and 1:200 TK Antibody-Cryptate using a Multidrop.
After the Detection Reagent addition, plates are covered and incubated at room temperature for 60 minutes. HTRF signal is read using an Envision reader, measured as a ratio of emissions at two different wavelengths, 620 nm and 665 nm. […] Test compound data are expressed as percentage inhibition defined by HPE and ZPE values for each plate. Percentage inhibition in the presence of test compound is plotted against compound concentration on a log scale to determine an IC50 from the resultant sigmoid curve.
Where more than one reading was taken, the arithmetic mean is presented.
For orientation: TR-FRET usually uses a lanthanide donor and a delayed reading to cut background.
In the case of `Cc1ccn(CC(=O)Nc2cc(C(=O)c3cn(C(C)C)c4ccncc34)ccn2)n1` [Example 109, 2-(3-methyl-1H-pyrazol-1-yl)-N-(4-{[1-(propan-2-yl)-1H-pyrrolo[3,2-c]pyridin-3-yl]carbonyl}pyridin-2-yl)acetamide], half-maximal inhibition (IC50) was put at 87.1 nM. To `CC(C)n1cc(C(=O)c2ccnc(NC(=O)Cc3ccc(C(F)(F)F)cc3)c2)c2cnccc21` [Example 175, N-(4-{[1-(propan-2-yl)-1H-pyrrolo[3,2-c]pyridin-3-yl]carbonyl}pyridin-2-yl)-2-[4-(trifluoromethyl)phenyl]acetamide] belongs 5.3 nM; to `CC(C)n1cc(C(=O)c2cncc(NC(=O)Cc3ccc(C#N)cn3)c2)c2cnccc21` [Example 139, 2-(5-cyanopyridin-2-yl)-N-(5-{[1-(propan-2-yl)-1H-pyrrolo[3,2-c]pyridin-3-yl]carbonyl}pyridin-3-yl)acetamide], 100 nM. Then `O=C(Nc1cc(C(=O)c2cn(CCO)c3ccncc23)ccn1)c1cccc(OC(F)(F)F)c1` [Example 142, N-(4-{[1-(2-hydroxyethyl)-1H-pyrrolo[3,2-c]pyridin-3-yl]carbonyl}pyridin-2-yl)-3-(trifluoromethoxy)benzamide], with 29.9 nM. To `CC(C)n1cc(C(=O)c2ccnc(NC(=O)Cn3cccn3)c2)c2cnccc21` [Example 166, N-(4-{[1-(propan-2-yl)-1H-pyrrolo[3,2-c]pyridin-3-yl]carbonyl}pyridin-2-yl)-2-(1H-pyrazol-1-yl)acetamide] belongs 955 nM; to `CC(C)(CO)n1cc(C(=O)c2cc(NC(=O)Cn3ccc(C4CC4)n3)ccn2)c2cnccc21` [Example 234, 2-(3-cyclopropyl-1H-pyrazol-1-yl)-N-(2-{[1-(1-hydroxy-2-methylpropan-2-yl)-1H-pyrrolo[3,2-c]pyridin-3-yl]carbonyl}pyridin-4-yl)acetamide], 16.5 nM; to `CC(CO)n1cc(C(=O)c2cncc(NC(=O)Cn3cc(C(F)(F)F)nn3)c2)c2cncc(F)c21` (single isomer, unassigned) [Example 220, N-(5-{[7-fluoro-1-(1-hydroxypropan-2-yl)-1H-pyrrolo[3,2-c]pyridin-3-yl]carbonyl}pyridin-3-yl)-2-[4-(trifluoromethyl)-1H-1,2,3-triazol-1-yl]acetamide], 160 nM. The compound `Cc1nc(CC(=O)Nc2cc(C(=O)c3cn(C(C)C)c4ccncc34)ccn2)cs1` [Example 161, 2-(2-methyl-1,3-thiazol-4-yl)-N-(4-{[1-(propan-2-yl)-1H-pyrrolo[3,2-c]pyridin-3-yl]carbonyl}pyridin-2-yl)acetamide] returned a 50% inhibitory concentration (IC50) of 103 nM. `CC(CO)n1cc(C(=O)c2cncc(NC(=O)Cn3cc(C4CC4)nn3)c2)c2cncc(F)c21` (single isomer, unassigned) [Example 207, 2-(4-cyclopropyl-1H-1,2,3-triazol-1-yl)-N-(5-{[7-fluoro-1-(1-hydroxypropan-2-yl)-1H-pyrrolo[3,2-c]pyridin-3-yl]carbonyl}pyridin-3-yl)acetamide]: the IC50 came out at 179 nM. To `CC(C)n1cc(C(=O)c2ccnc(NC(=O)Cc3ccon3)c2)c2cnccc21` [Example 180, 2-(1,2-oxazol-3-yl)-N-(4-{[1-(propan-2-yl)-1H-pyrrolo[3,2-c]pyridin-3-yl]carbonyl}pyridin-2-yl)acetamide] belongs 1080 nM; to `CC(CO)n1cc(C(=O)c2cncc(NC(=O)Cc3cccc(C(F)(F)F)c3)c2)c2cnccc21` (single isomer, unassigned) [Example 34, N-(5-{[1-(1-hydroxypropan-2-yl)-1H-pyrrolo[3,2-c]pyridin-3-yl]carbonyl}pyridin-3-yl)-2-[3-(trifluoromethyl)phenyl]acetamide], 17.1 nM.

`CC(C)c1cn(CC(=O)Nc2cc(C(=O)c3cn(C(C)C)c4ccncc34)ccn2)nn1` [Example 98, N-(4-{[1-(propan-2-yl)-1H-pyrrolo[3,2-c]pyridin-3-yl]carbonyl}pyridin-2-yl)-2[4-(propan-2-yl)-1H-1,2,3-triazol-1-yl]acetamide] registered an IC50 of 40.6 nM. Then `CC(CO)n1cc(C(=O)c2cncc(NC(=O)Cc3ccc(Cl)cn3)c2)c2cncc(F)c21` (single isomer, unassigned) [Example 211, 2-(5-chloropyridin-2-yl)-N-(5-{[7-fluoro-1-(1-hydroxypropan-2-yl)-1H-pyrrolo[3,2-c]pyridin-3-yl]carbonyl}pyridin-3-yl)acetamide], with 93.3 nM; and `CC(C)n1cc(C(=O)c2cncc(NC(=O)Cc3ccc(C#N)c(C(F)(F)F)c3)c2)c2cnccc21` [Example 37, 2-[4-cyano-3-(trifluoromethyl)phenyl]-N-(5-{[1-(propan-2-yl)-1H-pyrrolo[3,2-c]pyridin-3-yl]carbonyl}pyridin-3-yl)acetamide], with 51.7 nM. To `Cc1nccn1CC(=O)Nc1cncc(C(=O)c2cn(C(C)C)c3ccncc23)c1` [Example 118, 2-(2-methyl-1H-imidazol-1-yl)-N-(5-{[1-(propan-2-yl)-1H-pyrrolo[3,2-c]pyridin-3-yl]carbonyl}pyridin-3-yl)acetamide] belongs 9150 nM; to `CC(C)n1ncc(CC(=O)Nc2cc(C(=O)c3cn(C4COC4)c4ccncc34)ccn2)c1C(F)(F)F` [Example 201], 314 nM; to `COc1cccc(CC(=O)Nc2cc(C(=O)c3cn(C(C)C)c4ccncc34)ccn2)c1` [Example 108, 2-(3-methoxyphenyl)-N-(4-{[1-(propan-2-yl)-1H-pyrrolo[3,2-c]pyridin-3-yl]carbonyl}pyridin-2-yl)acetamide], 640 nM. To `CC(C)(CO)n1cc(C(=O)c2cncc(NC(=O)Cc3ccc(F)cn3)c2)c2cncc(F)c21` [Example 93, N-(5-{[7-fluoro-1-(1-hydroxy-2-methylpropan-2-yl)-1H-pyrrolo[3,2-c]pyridin-3-yl]carbonyl}pyridin-3-yl)-2-(5-fluoropyridin-2-yl)acetamide] belongs 38.7 nM; to `Cc1cc(C(F)(F)F)nn1CC(=O)Nc1cc(C(=O)c2cn(C(C)C)c3ccncc23)ccn1` [Example 104, 2-[5-methyl-3-(trifluoromethyl)-1H-pyrazol-1-yl]-N-(4-{[1-(propan-2-yl)-1H-pyrrolo[3,2-c]pyridin-3-yl]carbonyl}pyridin-2-yl)acetamide], 13.8 nM.

In turn, `CC(C)n1cc(C(=O)c2ccnc(NC(=O)Cc3ccc(F)cn3)c2)c2cnccc21` [Example 81, 2-(5-fluoropyridin-2-yl)-N-(4-{[1-(propan-2-yl)-1H-pyrrolo[3,2-c]pyridin-3-yl]carbonyl}pyridin-2-yl)acetamide] came in with an IC50 of 67 nM.

In turn, `Cc1n[nH]c(CC(=O)Nc2cc(C(=O)c3cn(C(C)C)c4ccncc34)ccn2)n1` [Example 184, 2-(3-methyl-1H-1,2,4-triazol-5-yl)-N-(4-{[1-(propan-2-yl)-1H-pyrrolo[3,2-c]pyridin-3-yl]carbonyl}pyridin-2-yl)acetamide] displayed an IC50 of 3180 nM. Then `Cc1ccnn1CC(=O)Nc1cc(C(=O)c2cn(C(C)C)c3ccncc23)ccn1` [Example 169, 2-(5-methyl-1H-pyrazol-1-yl)-N-(4-{[1-(propan-2-yl)-1H-pyrrolo[3,2-c]pyridin-3-yl]carbonyl}pyridin-2-yl)acetamide], with 83.6 nM; and `CC(C)c1ccnn1CC(=O)Nc1cncc(C(=O)c2cn(C(C)C)c3ccncc23)c1` [Example 124, 2-(5-(propan-2-yl)-1H-pyrazol-1-yl]-N-(5-{[1-(propan-2-yl)-1H-pyrrolo[3,2-c]pyridin-3-yl]carbonyl}pyridin-3-yl)acetamide], with 198 nM; and `CC(CO)n1cc(C(=O)c2cncc(NC(=O)Cc3ccc(F)cn3)c2)c2cnccc21` (single isomer, unassigned) [Example 74, 2-(5-fluoropyridin-2-yl)-N-(5-{[1-(1-hydroxypropan-2-yl)-1H-pyrrolo[3,2-c]pyridin-3-yl]carbonyl}pyridin-3-yl)acetamide], with 233 nM. Then `CC(CO)n1cc(C(=O)c2cncc(NC(=O)Cc3ccc(F)cn3)c2)c2cncc(F)c21` (single isomer, unassigned) [Example 218, N-(5-{[7-fluoro-1-(1-hydroxypropan-2-yl)-1H-pyrrolo[3,2-c]pyridin-3-yl]carbonyl}pyridin-3-yl)-2-(5-fluoropyridin-2-yl)acetamide], with 425 nM; and `CC(CO)n1cc(C(=O)c2cncc(NC(=O)Cc3ccc(Cl)cn3)c2)c2cnccc21` (single isomer, unassigned) [Example 66, 2-(5-chloropyridin-2-yl)-N-(5-{[1-(1-hydroxypropan-2-yl)-1H-pyrrolo[3,2-c]pyridin-3-yl]carbonyl}pyridin-3-yl)acetamide], with 37.6 nM.
